Measured values from ChEMBL document CHEMBL1201862, “PubChem BioAssay data set” (2004).
The source made the active and inactive calls.

Assays:
[1] = LGR2 antagonists, dose response, cell-based, HEK293, CRE-luciferase reporter, cherry pick, set 2 (AID 743343); format: functional;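 further: transfected cells were stimulated with diluted bursicon conditioned medium after compound addition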
[2] = MC4R antagonists, dose response, counter-screen for LGR2 antagonist project, cell-based, plate reader, cherry pick (AID 743444); format: functional;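 further: transfected HEK 293 cells stimulated with alpha-MSH peptide; potency of inhibitors of the alpha-MSH evoked signal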
[3] = HepG2 cell cytotoxicity, dose response, cytotoxicity control, plate reader, cherry-pick, antagonist series (AID 743416); format: functional, cell-based
[4] = HEK293 cell cytotoxicity, dose response, cytotoxicity control, plate reader, cherry-picked samples (AID 743446); format: functional, cell-based
[5] = intracellular Trypanosoma cruzi inhibitors in host cells – cell-based, plate reader, cherry-pick samples, set 3, dose response (AID 651818); format: functional;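 further: compounds incubated with infected cells for about four days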
[6] = A549 cell cytotoxicity, dose response, cytotoxicity control, plate reader, cherry-pick, antagonist series (AID 743412); format: functional, cell-based
Vero = assay: Vero cell toxicity, dose response, cytotoxicity control, plate reader, cherry-pick samples (AID 687020); format: functional, cell-based; conditions: Chlorocebus sabaeus
[7] = ADAM10 protease inhibitors, dose response, selectivity assay for ADAM17 exosite inhibitor project, biochemical, FRET peptide substrate, recombinant human ADAM10 (AID 743259);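 further: ADAM10 enzyme cleaving a FRET peptide substrate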
[8] = biological target: Disintegrin and metalloproteinase domain-containing protein 17 (Homo sapiens, UniProt P78536); assay: exosite inhibitors of ADAM17, dose response, biochemical (AID 743260)
[9] = biological target: T1, Small ubiquitin-related modifier 2 (Homo sapiens, UniProt P61956); assay: inhibitors of SUMO2 protein-protein interaction, dose response, selectivity assay for SUMO1 interaction inhibitor project, biochemical, FRET, human SUMO2, uHTS hits (AID 624384); format: functional; conditions: read-out: IC50_Mean
[10] = biological target: T2, Probable nicotinate-nucleotide adenylyltransferase (Staphylococcus aureus (strain N315), UniProt P65502); format: functional, Staphylococcus aureus subsp. aureus N315;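 on IC50 Mean: confirmatory dose-response retesting of NadD inhibitor hits first found in an ultra-high-throughput screen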
[11] = biological target: DNA (cytosine-5)-methyltransferase 1 (Homo sapiens, UniProt P26358); assay: DNMT1 methyltransferase inhibitors, confirmation, biochemical, fluorescent molecular beacon (AID 602386); format: functional
[12] = biological target: T3, Small ubiquitin-related modifier 1 (Homo sapiens, UniProt P63165); assay: inhibitors of SUMO1 peptide binding, dose response, biochemical, fluorescence polarization, uHTS hits (AID 624382); format: functional; conditions: read-out: IC50_Mean
[13] = biological target: T3, Small ubiquitin-related modifier 1; assay: inhibitors of SUMO1 partner interactions, dose response, biochemical, FRET (AID 624383); format: functional; conditions: read-out: IC50_Mean
[14] = biological target: T1, Small ubiquitin-related modifier 2; assay: SUMO2–SIM peptide binding inhibitors, dose response, selectivity assay for SUMO1 interaction inhibitor project, biochemical, fluorescence polarization, uHTS hits (AID 624385); format: functional; conditions: read-out: IC50_Mean
[15] = biological target: T2, Probable nicotinate-nucleotide adenylyltransferase; format: functional, Staphylococcus aureus subsp. aureus N315; conditions: read-out: IC50_Mean
[16] = biological target: T4, Alkaline phosphatase, tissue-nonspecific isozyme (Homo sapiens, UniProt P05186); assay: TNAP enzyme inhibition by screening hits, dose response, selectivity assay for mouse IAP inhibitor project, biochemical, human TNAP, uHTS hits (AID 488906); format: functional
T4 sequence (P05186 whole entry): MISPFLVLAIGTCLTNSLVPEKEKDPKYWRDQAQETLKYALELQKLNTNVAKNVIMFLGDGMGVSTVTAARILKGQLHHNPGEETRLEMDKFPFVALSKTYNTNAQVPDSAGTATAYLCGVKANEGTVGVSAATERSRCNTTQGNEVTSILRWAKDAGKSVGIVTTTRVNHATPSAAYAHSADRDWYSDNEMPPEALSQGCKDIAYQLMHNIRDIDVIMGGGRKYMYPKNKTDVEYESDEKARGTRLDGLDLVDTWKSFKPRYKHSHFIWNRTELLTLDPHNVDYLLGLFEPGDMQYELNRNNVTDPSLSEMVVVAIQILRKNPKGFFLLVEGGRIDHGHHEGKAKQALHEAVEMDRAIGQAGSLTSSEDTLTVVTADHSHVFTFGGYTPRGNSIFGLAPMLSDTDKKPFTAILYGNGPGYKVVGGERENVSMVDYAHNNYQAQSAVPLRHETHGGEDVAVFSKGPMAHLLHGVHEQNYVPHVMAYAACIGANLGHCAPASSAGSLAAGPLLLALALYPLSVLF

[17] = biological target: Intestinal-type alkaline phosphatase (Homo sapiens, UniProt P09923); assay: inhibition of human intestinal alkaline phosphatase – biochemical, dose response (AID 488876); format: functional
[18] = biological target: Intestinal-type alkaline phosphatase (Mus musculus, UniProt P24822); assay: PubChem AID 488785; format: functional
[19] = biological target: T5, Protein disulfide-isomerase (Homo sapiens, UniProt P07237); assay: PDI inhibitors, insulin aggregation turbidity, dose response, biochemical, absorbance, cherry-picked samples (AID 602350); format: functional
[20] = biological target: T5, Protein disulfide-isomerase; assay: PDI inhibitors, insulin turbidity readout, confirmation, biochemical, dry powder samples, set 2 (AID 652146)
[21] = HEK293T cytotoxicity, dose response, cytotoxicity control for miR-122 modulator project, cell-based, activator set, cherry-pick (AID 720690); format: functional;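 further: HEK293T human cells scored for general mammalian cytotoxicity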
Protein Wnt-3a = Protein Wnt-3a (Mus musculus, UniProt P27467); assay: Wnt3a-driven reporter signaling inhibition, dose response, selectivity assay for Gli-SUFU antagonist project, Wnt-LIGHT cells, luminescence (AID 651570); format: functional; conditions: read-out: IC50_Mean;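 further: Wnt-LIGHT reporter cells stimulated with conditioned medium from Wnt3a-producing cells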
Sequence of Protein Wnt-3a (P27467 whole entry): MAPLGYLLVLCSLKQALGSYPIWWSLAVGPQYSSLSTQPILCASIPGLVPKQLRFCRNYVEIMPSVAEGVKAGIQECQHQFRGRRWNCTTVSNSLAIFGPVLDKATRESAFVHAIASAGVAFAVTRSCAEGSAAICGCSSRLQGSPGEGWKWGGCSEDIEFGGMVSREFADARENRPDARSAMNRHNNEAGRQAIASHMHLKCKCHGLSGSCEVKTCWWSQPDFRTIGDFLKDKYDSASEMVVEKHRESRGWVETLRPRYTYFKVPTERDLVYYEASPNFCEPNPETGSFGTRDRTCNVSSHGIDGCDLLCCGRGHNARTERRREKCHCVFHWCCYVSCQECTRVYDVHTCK

T2 sequence (P65502 whole entry): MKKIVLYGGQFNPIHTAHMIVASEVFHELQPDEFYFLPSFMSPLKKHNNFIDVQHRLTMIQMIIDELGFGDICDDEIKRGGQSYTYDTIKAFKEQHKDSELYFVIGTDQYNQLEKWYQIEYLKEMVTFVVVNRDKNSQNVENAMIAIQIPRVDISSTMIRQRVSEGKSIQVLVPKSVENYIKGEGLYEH
T5 sequence (P07237 whole entry): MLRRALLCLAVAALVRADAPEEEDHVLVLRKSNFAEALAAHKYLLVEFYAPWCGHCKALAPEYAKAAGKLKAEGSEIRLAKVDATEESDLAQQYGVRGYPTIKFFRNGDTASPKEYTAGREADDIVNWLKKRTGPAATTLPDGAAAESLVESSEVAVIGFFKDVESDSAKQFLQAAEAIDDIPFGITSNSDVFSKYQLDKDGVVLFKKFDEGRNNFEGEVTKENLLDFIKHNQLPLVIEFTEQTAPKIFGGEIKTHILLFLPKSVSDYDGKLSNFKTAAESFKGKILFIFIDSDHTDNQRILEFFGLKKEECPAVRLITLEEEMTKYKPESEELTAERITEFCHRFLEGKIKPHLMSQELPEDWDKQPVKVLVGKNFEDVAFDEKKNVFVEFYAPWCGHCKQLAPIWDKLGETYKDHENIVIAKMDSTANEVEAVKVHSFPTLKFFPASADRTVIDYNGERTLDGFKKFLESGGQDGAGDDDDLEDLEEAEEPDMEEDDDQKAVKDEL
T3 sequence (P63165 whole entry): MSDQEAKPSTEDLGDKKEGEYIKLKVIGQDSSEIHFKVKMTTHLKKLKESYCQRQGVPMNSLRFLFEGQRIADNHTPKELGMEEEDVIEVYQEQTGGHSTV
T1 sequence (P61956 whole entry): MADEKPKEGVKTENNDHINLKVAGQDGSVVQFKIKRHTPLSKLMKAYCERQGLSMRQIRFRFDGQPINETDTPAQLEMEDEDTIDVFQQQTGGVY
Sequence of DNA (cytosine-5)-methyltransferase 1 (P26358 whole entry): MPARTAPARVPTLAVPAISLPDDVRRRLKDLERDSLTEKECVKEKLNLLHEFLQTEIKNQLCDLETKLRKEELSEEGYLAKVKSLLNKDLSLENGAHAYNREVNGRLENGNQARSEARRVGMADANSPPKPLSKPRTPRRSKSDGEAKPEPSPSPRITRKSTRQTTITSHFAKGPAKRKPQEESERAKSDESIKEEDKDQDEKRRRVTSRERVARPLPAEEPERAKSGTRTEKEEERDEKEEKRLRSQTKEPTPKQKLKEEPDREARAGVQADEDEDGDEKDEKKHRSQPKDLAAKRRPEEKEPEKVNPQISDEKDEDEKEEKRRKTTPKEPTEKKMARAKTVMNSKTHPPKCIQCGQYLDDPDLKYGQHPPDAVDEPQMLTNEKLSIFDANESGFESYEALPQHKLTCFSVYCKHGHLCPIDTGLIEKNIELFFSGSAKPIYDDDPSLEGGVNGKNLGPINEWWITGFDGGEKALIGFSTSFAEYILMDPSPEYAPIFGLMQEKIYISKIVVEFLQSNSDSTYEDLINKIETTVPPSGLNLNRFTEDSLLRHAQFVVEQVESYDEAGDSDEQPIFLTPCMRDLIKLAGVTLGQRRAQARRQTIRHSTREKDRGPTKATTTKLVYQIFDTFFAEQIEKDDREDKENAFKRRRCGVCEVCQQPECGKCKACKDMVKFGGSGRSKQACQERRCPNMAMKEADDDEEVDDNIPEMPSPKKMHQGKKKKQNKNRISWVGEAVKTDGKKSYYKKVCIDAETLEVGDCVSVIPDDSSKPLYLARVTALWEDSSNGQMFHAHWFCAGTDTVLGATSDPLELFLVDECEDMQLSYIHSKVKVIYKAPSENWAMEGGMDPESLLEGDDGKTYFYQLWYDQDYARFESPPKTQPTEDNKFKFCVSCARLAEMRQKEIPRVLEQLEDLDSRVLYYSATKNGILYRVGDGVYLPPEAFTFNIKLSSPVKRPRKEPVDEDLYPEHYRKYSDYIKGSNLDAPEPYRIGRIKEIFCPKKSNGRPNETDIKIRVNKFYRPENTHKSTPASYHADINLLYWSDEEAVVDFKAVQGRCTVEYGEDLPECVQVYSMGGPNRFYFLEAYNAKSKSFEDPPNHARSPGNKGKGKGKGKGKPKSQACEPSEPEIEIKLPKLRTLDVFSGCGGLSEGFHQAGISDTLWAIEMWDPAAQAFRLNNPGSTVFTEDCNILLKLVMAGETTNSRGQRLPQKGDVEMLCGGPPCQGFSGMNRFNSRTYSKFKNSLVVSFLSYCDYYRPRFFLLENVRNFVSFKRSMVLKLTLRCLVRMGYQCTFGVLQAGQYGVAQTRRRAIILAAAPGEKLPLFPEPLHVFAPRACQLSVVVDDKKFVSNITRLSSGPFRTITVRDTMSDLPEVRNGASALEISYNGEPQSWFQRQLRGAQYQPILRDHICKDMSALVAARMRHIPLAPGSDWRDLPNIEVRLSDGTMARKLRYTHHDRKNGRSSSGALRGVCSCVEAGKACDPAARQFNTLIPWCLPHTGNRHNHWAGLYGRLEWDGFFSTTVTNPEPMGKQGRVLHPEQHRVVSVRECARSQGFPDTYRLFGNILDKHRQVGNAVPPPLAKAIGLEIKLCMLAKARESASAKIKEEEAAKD
Sequence of Disintegrin and metalloproteinase domain-containing protein 17 (P78536 whole entry, the tested form may be a part): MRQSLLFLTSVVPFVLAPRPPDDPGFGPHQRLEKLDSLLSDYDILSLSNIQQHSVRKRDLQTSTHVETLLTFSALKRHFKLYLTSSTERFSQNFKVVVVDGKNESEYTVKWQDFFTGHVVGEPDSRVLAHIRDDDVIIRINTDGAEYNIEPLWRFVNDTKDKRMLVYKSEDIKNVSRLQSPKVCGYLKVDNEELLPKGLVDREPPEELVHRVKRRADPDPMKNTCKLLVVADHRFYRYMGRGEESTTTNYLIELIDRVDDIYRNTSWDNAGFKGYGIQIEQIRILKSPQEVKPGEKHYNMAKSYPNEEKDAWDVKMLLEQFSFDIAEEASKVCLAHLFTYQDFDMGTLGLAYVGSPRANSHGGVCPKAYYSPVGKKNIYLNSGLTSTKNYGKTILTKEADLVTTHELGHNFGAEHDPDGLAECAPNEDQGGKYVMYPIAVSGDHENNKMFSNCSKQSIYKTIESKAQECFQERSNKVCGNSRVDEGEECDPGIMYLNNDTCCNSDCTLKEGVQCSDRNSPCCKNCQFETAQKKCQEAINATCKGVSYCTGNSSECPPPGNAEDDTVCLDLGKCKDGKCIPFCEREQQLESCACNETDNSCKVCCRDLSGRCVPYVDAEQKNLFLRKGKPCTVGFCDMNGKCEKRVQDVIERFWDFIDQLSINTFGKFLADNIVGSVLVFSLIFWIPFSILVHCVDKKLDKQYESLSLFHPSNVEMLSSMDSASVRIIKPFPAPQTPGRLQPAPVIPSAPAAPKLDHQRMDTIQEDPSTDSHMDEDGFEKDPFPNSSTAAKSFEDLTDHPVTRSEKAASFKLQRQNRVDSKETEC
Sequence of Intestinal-type alkaline phosphatase (Homo sapiens, UniProt P09923) (P09923 whole entry): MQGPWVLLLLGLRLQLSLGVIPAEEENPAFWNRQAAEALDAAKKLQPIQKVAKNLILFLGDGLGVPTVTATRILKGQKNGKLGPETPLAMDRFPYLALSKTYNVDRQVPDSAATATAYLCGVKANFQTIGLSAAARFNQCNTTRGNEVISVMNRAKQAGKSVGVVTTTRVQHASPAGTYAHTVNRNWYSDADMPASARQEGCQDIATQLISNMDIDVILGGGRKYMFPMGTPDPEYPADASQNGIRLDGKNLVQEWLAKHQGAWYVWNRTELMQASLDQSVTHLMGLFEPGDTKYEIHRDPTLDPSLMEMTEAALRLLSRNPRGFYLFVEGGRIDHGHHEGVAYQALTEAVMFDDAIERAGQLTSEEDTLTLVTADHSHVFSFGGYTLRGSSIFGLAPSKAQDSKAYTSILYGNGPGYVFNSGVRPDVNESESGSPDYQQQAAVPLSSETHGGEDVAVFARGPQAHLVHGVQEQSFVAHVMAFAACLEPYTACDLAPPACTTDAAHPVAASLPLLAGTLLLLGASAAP
Sequence of Intestinal-type alkaline phosphatase (Mus musculus, UniProt P24822) (P24822 whole entry): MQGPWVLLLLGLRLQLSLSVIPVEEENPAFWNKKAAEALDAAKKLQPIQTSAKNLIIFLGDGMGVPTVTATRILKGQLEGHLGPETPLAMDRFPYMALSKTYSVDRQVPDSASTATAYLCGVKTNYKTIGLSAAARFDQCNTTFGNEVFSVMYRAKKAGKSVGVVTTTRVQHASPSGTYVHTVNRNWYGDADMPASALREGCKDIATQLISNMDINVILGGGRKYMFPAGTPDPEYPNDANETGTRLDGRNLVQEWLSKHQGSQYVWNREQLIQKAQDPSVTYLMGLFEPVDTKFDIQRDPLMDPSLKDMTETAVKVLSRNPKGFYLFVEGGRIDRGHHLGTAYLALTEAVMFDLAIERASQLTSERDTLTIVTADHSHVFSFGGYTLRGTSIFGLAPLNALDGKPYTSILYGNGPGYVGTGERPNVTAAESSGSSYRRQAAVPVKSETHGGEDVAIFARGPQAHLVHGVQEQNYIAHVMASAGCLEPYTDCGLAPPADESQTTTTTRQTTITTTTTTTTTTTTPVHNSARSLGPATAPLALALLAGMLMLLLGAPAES

COc1ccc(CN(C)C[C@@H]2Oc3c(NC(=O)Nc4ccc(C(F)(F)F)cc4)cccc3C(=O)N([C@@H](C)CO)C[C@H]2C)cc1
AC50 [1]: 16.6 µM (active) | AC50 [2]: 11 µM (active) | AC50 [3]: 7.95 µM (active) | AC50 [4]: 3.5 µM (active) | AC50 [5]: 2.27 µM (active) | AC50 [6]: 13.6 µM (active)

CCn1c(=O)n(CC)c2cc(N3CCCC3)c(NC(=O)c3ccc(C)cc3)cc21
AC50 (Vero): 32.2 µM (active)

Cc1ccc(S(=O)(=O)N2C[C@H]3C(=O)C[C@@H](c4ccccc4)N(S(=O)(=O)c4ccc(C)cc4)[C@H]3C[C@H]2c2cccc3ccccc23)cc1
IC50 [7]: > 69.5 µM (inactive) | IC50 [8]: > 69.5 µM (inactive)

COc1ccc(Br)cc1/C=N/Nc1ccc(S(=O)(=O)Nc2ccccc2C(=O)O)cc1[N+](=O)[O-]
IC50 [9]: 45.4 µM (inactive) | IC50 [10]: 3.24 µM (active) | IC50 [11]: 3.39 µM (active) | IC50 [12]: 4.47 µM (active) | IC50 [13]: 50.6 µM (inactive) | IC50 [14]: 2.52 µM (active) | IC50 [15]: 19.9 µM (active)

O=C(c1c(O)cc(O)cc1O)C1c2c(cc(O)c3c2O[C@H](c2ccc(O)cc2)[C@@H](O)C3)OC1c1ccc(O)cc1 (some centres not stated) [DIHYDRODAPHNODORIN B]
IC50 [16]: 19.7 µM (active) | IC50 [17]: 18.3 µM (active) | IC50 [18]: 7.21 µM (active) | AC50 [19]: 19.5 µM (active)

O=C(N1CCCC1)C1(CCOc2ccccc2)CCN(Cc2ccc(O)c(Cl)c2)CC1
AC50 [20]: > 30 µM (inactive)

O=C(C1CCCCC1)N1C[C@@H]2[C@H](c3ccccc31)[C@H](CO)N2Cc1ccccc1Cl
AC50 [21]: 27.1 µM (active)

O=C(C[C@H]1C/C=C\C[C@@H](NC(=O)OCC2c3ccccc3-c3ccccc32)C(=O)O[C@@H](c2ccccc2)CNC1=O)N[C@H](CO)Cc1ccccc1
IC50 (Protein Wnt-3a): 20.8 µM (inactive)

N#C[C@@H]1[C@H](c2ccc(C#Cc3cccc(F)c3)cc2)[C@@H](CO)N1C(=O)C1CCC1
AC50 [1]: 9.75 µM (active) | AC50 [2]: 8.46 µM (active) | AC50 [3]: > 47 µM (inactive) | AC50 [6]: 28.2 µM (active)
